Results on 25 molecules are retold here after US8445674B2, “Heterocyclyl compounds” (Hoffmann-La Roche Inc, priority 2009, dated 2013).

The target in the experiment is T1, human chemokine receptor 2 isoform B (Homo sapiens, UniProt P41597).
T1 construct: host or cells: CHOK1-CCR2B-A5 cells (CHO-K1)
T1 sequence (P41597 1-360 isoform P41597-2): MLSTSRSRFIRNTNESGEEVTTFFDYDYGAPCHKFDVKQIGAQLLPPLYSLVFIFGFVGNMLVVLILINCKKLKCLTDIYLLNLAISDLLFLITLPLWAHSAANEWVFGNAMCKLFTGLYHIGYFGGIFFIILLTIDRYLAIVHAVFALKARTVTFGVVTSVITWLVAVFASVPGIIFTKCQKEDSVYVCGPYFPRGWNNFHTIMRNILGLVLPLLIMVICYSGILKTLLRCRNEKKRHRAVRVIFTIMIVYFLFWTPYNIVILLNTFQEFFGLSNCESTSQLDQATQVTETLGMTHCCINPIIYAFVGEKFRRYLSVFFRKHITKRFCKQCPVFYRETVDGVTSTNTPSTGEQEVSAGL
The experiment in a line: Calcium mobilization assay (FLIPR, antagonist activity against MCP-1). In kind it is cell-based. The note with it: Ca mobilisation assay, CHOK1-CCR2B-A5 cells, inhibition of calcium increase induced by 20 nM MCP-1. An outline of the steps: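 CHOK1 cells stably overexpressing human CCR2B, loaded with 4 μM Fluo-4 for 2 h at 30° C, compounds added and agonist signal read by FLIPR for 80 s. After 20-30 min at 30° C, 20 nM MCP-1 was added and fluorescence read again. IC50 is 50% inhibition of specific calcium increase (max minus basal).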
On the technique in general: Calcium flux is commonly read through the fluorescence of an indicator in the cells.

The IC50 is the concentration that gives 50% inhibition. With `C[C@H]1C(=O)N([C@@H](CCC(=O)N2CCC3(CC3)[C@H](O)C2)C(N)=O)CCN1C(=O)Nc1ccc(C(F)(F)F)c(Cl)c1` [Example 141, (S)-4-[(S)-1-Carbamoyl-4-((S)-4-hydroxy-6-aza-spiro[2.5]oct-6-yl)-4-oxo-butyl]-2-methyl-3-oxo-piperazine-1-carboxylic acid (3-chloro-4-trifluoromethyl-phenyl)-amide], the IC50 came to 500 nM.

Regarding `O=C1CC2(CCN(C(=O)CCN3CCN(C(=O)/C=C/c4ccc(Cl)c(Cl)c4)CCC3=O)CC2)C(=O)N1` [Example 93, 8-(3-{4-[(E)-3-(3,4-Dichloro-phenyl)-acryloyl]-7-oxo-[1,4]diazepan-1-yl}-propionyl)-2,8-diaza-spiro[4.5]decane-1,3-dione], the 50% inhibitory concentration (IC50) was found to be 1160 nM.

`C[C@H]1C(=O)N(CCCC(=O)N2CCC3(CC3)[C@H](O)C2)CCN1C(=O)Nc1ccc(C(F)(F)F)c(Cl)c1` [Example 33, (S)-4-[4-((S)-4-Hydroxy-6-aza-spiro[2.5]oct-6-yl)-4-oxo-butyl]-2-methyl-3-oxo-piperazine-1-carboxylic acid (3-chloro-4-trifluoromethyl-phenyl)-amide]: the IC50 worked out at 4.4 nM.

As to `O=C(/C=C/c1ccc(Cl)c(Cl)c1)N1CCC(=O)N(CCC(=O)N2CCC3(CCCC3)CC2)CC1` [Example 83, 4-[3-(8-Aza-spiro[4.5]dec-8-yl)-3-oxo-propyl]-1-[(E)-3-(3,4-dichloro-phenyl)-acryloyl]-[1,4]diazepan-5-one], the concentration for half-maximal inhibition (IC50) was 307 nM.

As for `O=C(/C=C/c1cccc(Cl)c1)N1CCC(=O)N(C(CO)CC(=O)N2CCC3(CC3)[C@H](O)C2)CC1` (stereo partly drawn) [Example 11, 1-[(E)-3-(3-Chloro-phenyl)-acryloyl]-4-[(R,S)-3-((S)-4-hydroxy-6-aza-spiro[2.5]oct-6-yl)-1-hydroxymethyl-3-oxo-propyl]-[1,4]diazepan-5-one], the IC50 was found to be 464 nM.

For the molecule `O=C(/C=C/c1ccc(Cl)c(Cl)c1)N1CCC(=O)N(CCC(=O)N2CCCCC2)CC1` [Example 82, 1-[(E)-3-(3,4-Dichloro-phenyl)-acryloyl]-4-(3-oxo-3-piperidin-l-yl-propyl)-[1,4]diazepan-5-one], the IC50 is 1830 nM.

On to `C[C@H]1C(=O)N(C[C@H](O)CC(=O)N2CCC3(CC3)[C@H](O)C2)CCN1C(=O)Nc1ccc(C(F)(F)F)c(C(F)(F)F)c1` [Example 49, (S)-4-[(R)-2-hydroxy-4-((S)-4-hydroxy-6-aza-spiro[2.5]oct-6-yl)-4-oxo-butyl]-2-methyl-3-oxo-piperazine-1-carboxylic acid (3,4-bis-trifluoromethyl-phenyl)-amide], for which the IC50 came out at 5.8 nM.

In the case of `C[C@H]1C(=O)N(C[C@@H](O)CC(=O)N2CCC3(CC3)[C@H](O)C2)CCN1C(=O)Nc1ccc(C(F)(F)F)c(C(F)(F)F)c1` [Example 48, (S)-4-[(S)-2-Hydroxy-4-((S)-4-hydroxy-6-aza-spiro[2.5]oct-6-yl)-4-oxo-butyl]-2-methyl-3-oxo-piperazine-1-carboxylic acid (3,4-bis-trifluoromethyl-phenyl)-amide], the IC50 is 2.4 nM.

With `C[C@@H]1C(=O)N(CCCC(=O)N2CCC3(CC3)[C@H](O)C2)[C@@H](C(N)=O)CN1C(=O)Nc1ccc(Cl)c(Cl)c1` [Example 151, (3R,6R)-4-[4-((S)-4-Hydroxy-6-aza-spiro[2.5]oct-6-yl)-4-oxo-butyl]-6-methyl-5-oxo-piperazine-1,3-dicarboxylic acid 3-amide 1-[(3,4-dichloro-phenyl)-amide]], the IC50 is 62.1 nM.

Take `C[C@H]1C(=O)N(CCCC(=O)N2CCC3(CC3)[C@H](O)C2)CCN1C(=O)Nc1cccc(Cl)c1` [Example 26, (S)-4-[4-((S)-4-Hydroxy-6-aza-spiro[2.5]oct-6-yl)-4-oxo-butyl]-2-methyl-3-oxo-piperazine-1-carboxylic acid (3-chloro-phenyl)-amide]: the IC50 was found to be 18.1 nM.

Take `COC(=O)[C@H](CCC(=O)N1CCC2(CC2)[C@H](O)C1)N1CCN(C(=O)Nc2ccc(C(F)(F)F)c(C(F)(F)F)c2)[C@@H](C)C1=O` [Example 143, (S)-2-[(S)-4-(3,4-Bis-trifluoromethyl-phenylcarbamoyl)-3-methyl-2-oxo-piperazin-1-yl]-5-((S)-4-hydroxy-6-aza-spiro[2.5]oct-6-yl)-5-oxo-pentanoic acid methyl ester]: the half-maximal inhibitory concentration (IC50) was 337 nM.

Take `C[C@H]1C(=O)N(CCC(O)C(=O)N2CCC3(CC3)[C@H](O)C2)CCN1C(=O)Nc1ccc(C(F)(F)F)c(C(F)(F)F)c1` (stereo partly drawn) [Example 135, (S)-4-[(R,S)-3-Hydroxy-4-((S)-4-hydroxy-6-aza-spiro[2.5]oct-6-yl)-4-oxo-butyl]-2-methyl-3-oxo-piperazine-1-carboxylic acid (3,4-bis-trifluoromethyl-phenyl)-amide]: the IC50 turned out to be 62.2 nM.

As for `O=C(/C=C/c1ccc(Cl)c(Cl)c1)N1CCC(=O)N(CCC(=O)N2CCCC(CO)C2)CC1` (racemic) [Example 68, (rac)-1-[(E)-3-(3,4-Dichloro-phenyl)-acryloyl]-4-[3-(3-hydroxymethyl-piperidin-1-yl)-3-oxo-propyl]-[1,4]diazepan-5-one], the IC50 came out at 758 nM.

Turning to `CC1(O)CCCN(C(=O)CCN2CCN(C(=O)/C=C/c3ccc(Cl)c(Cl)c3)CCC2=O)C1` (racemic) [Example 74, (rac)-1-[(E)-3-(3,4-Dichloro-phenyl)-acryloyl]-4-[3-(3-hydroxy-3-methyl-piperidin-1-yl)-3-oxo-propyl]-[1,4]diazepan-5-one], the IC50 is 1540 nM.

For `O=C(/C=C/c1ccc(Cl)c(Cl)c1)N1CCC(=O)N(CCC(=O)N2CCCC(O)C2)CC1` (racemic) [Example 70, (rac)-1-[(E)-3-(3,4-Dichloro-phenyl)-acryloyl]-4-[3-(3-hydroxy-piperidin-1-yl)-3-oxo-propyl]-[1,4]diazepan-5-one], the IC50 is 1300 nM.

Take `C[C@H]1C(=O)N(CC[C@H](O)C(=O)N2CCC3(CC3)[C@H](O)C2)CCN1C(=O)Nc1ccc(C(F)(F)F)c(Cl)c1` [Example 134, (S)-4-[(S)-3-Hydroxy-4-((S)-4-hydroxy-6-aza-spiro[2.5]oct-6-yl)-4-oxo-butyl]-2-methyl-3-oxo-piperazine-1-carboxylic acid (3-chloro-4-trifluoromethyl-phenyl)-amide]: the IC50 came out at 188 nM.

`C[C@H]1C(=O)N(CCCC(=O)N2CC[C@H](F)[C@@H](O)C2)CCN1C(=O)Nc1cccc(Cl)c1` (mixture of isomers) [Example 115, (S)-4-[4-((3SR,4SR)-4-Fluoro-3-hydroxy-piperidin-1-yl)-4-oxo-butyl]-2-methyl-3-oxo-piperazine-1-carboxylic acid (3-chloro-phenyl)-amide]: the IC50 was determined as 1360 nM.

As for `C[C@@H]1CN(CCC(=O)N2CCCCC2)C(=O)CCN1C(=O)/C=C/c1cccc(Cl)c1` [Example 101, (R)-1-[(E)-3-(3-Chloro-phenyl)-acryloyl]-2-methyl-4-(3-oxo-3-piperidin-1-yl-propyl)-[1,4]diazepan-5-one], the IC50 turned out to be 2480 nM.

For the molecule `COC(=O)NC1CCN(C(=O)CCN2CCN(C(=O)/C=C/c3ccc(Cl)c(Cl)c3)CCC2=O)CC1` [Example 88, [1-(3-{4-[(E)-3-(3,4-Dichloro-phenyl)-acryloyl]-7-oxo-[1,4]diazepan-1-yl}-propionyl)-piperidin-4-yl]-carbamic acid methyl ester], the IC50 turned out to be 1750 nM.

Take `COCC(CC(=O)N1CCC2(CC2)[C@H](O)C1)N1CCN(C(=O)/C=C/c2cccc(Cl)c2)CCC1=O` (stereo partly drawn) [Example 13, 1-[(E)-3-(3-Chloro-phenyl)-acryloyl]-4-[(R,S)-3-((S)-4-hydroxy-6-aza-spiro[2.5]oct-6-yl)-1-methoxymethyl-3-oxo-propyl]-[1,4]diazepan-5-one]: the IC50 was 771 nM.

Regarding `CNC(=O)[C@H](CCC(=O)N1CCC2(CC2)[C@H](O)C1)N1CCN(C(=O)Nc2ccc(C(F)(F)F)c(Cl)c2)[C@@H](C)C1=O` [Example 142, (S)-4-[(S)-4-((S)-4-Hydroxy-6-aza-spiro[2.5]oct-6-yl)-1-methylcarbamoyl-4-oxo-butyl]-2-methyl-3-oxo-piperazine-1-carboxylic acid (3-chloro-4-trifluoromethyl-phenyl)-amide], the IC50 came out at 1320 nM.

Take `O=C(/C=C/c1ccc(Cl)c(Cl)c1)N1CCC(=O)N(CCC(=O)N2CCC(O)(c3ccccn3)CC2)CC1` [Example 76, 1-[(E)-3-(3,4-Dichloro-phenyl)-acryloyl]-4-[3-(4'-hydroxy-3′,4′,5′,6′-tetrahydro-2′H-[2,4′]bipyridinyl-1′-yl)-3-oxo-propyl]-[1,4]diazepan-5-one]: the IC50 was 971 nM.

Turning to `C[C@H]1CCN(C(=O)CCCN2CCN(C(=O)Nc3cccc(Cl)c3)[C@@H](C)C2=O)C[C@H]1O` [Example 111, (S)-4-[4-((3S,4S)-3-Hydroxy-4-methyl-piperidin-1-yl)-4-oxo-butyl]-2-methyl-3-oxo-piperazine-1-carboxylic acid (3-chloro-phenyl)-amide], the IC50 is 893 nM.

Turning to `C[C@H]1C(=O)N(CCCC(=O)N2CCC3(CC2)COC3)CCN1C(=O)Nc1cccc(Cl)c1` [Example 36, (S)-2-Methyl-4-[4-(2-oxa-7-aza-spiro[3.5]non-7-yl)-4-oxo-butyl]-3-oxo-piperazine-1-carboxylic acid (3-chloro-phenyl)-amide], the IC50 amounted to 2340 nM.

In the case of `C[C@H]1C(=O)N(CCC(=O)N2CCCC(O)C2)CCN1C(=O)Nc1ccc(Cl)c(Cl)c1` (stereo partly drawn) [Example 17, (S)-4-[3-((R,S)-3-Hydroxy-piperidin-1-yl)-3-oxo-propyl]-2-methyl-3-oxo-piperazine-1-carboxylic acid (3,4-dichloro-phenyl)-amide], the concentration for half-maximal inhibition (IC50) worked out at 3170 nM.
